Reference: US5506217A, “Phosphonates as anti-cancer agents” (The University of British Columbia, priority 1994, dated 1996)
Read-outs that look alike come from different tables or passages of the source.

How the values were obtained:
[1] = system: Lewis lung carcinoma cells; assay: LLC tumor growth in BALB/C mice; format: in vivo; settings: for Tumor volume (mm^3): 50 mg/day orally once a day from day 3
Description: BALB/C mice were injected with […] lung carcinoma cells under the skin at the back. Three days after injection of the rumor cells, treatment with the phosphonate shown above (compound VI) (50 mg/day orally once a day) was initiated in one group of mice, while a second group of mice received only the carrier, mucilage of tragacanth.

C-41 tumor cells = assay: 3H-thymidine incorporation assay; format: cell-based; settings: Homo sapiens, read-out: Thymidine uptake (% of control)
Description: (§1) Experiments were performed using a number of different rumor cell lines. Tumor cells were cultured in RPMI-1640 medium supplemented with 10% fetal bovine serum, penicillin (50 units/mL), streptomycin (50 μg/mL) and mercaptoethanol (5 μg/mL) in an atmosphere of 5% CO2. The cells were passaged weekly by serial 1/10 to 1/10,000 dilutions. The cell viability and growth were constantly monitored by staining with trypan blue exclusion dye or the incorporation of tritiated thymidine.
(§2) Inhibition of ^3 H-thymidine incorporation into the DNA of cells by a test compound is an indirect measurement of cell kill or growth inhibition, and reflects the anti-cancer activity of the compound.
(§3) Tumor cells (2×104 ^4 cells/well) were placed in 200 μL of medium in 96-well plastic microtiter plates; a further 5 μL of medium either with or without phosphonate was added. After incubation for 24, 48 or 72 hours at 37° C. in a humidified atmosphere containing 5% CO2, the wells were pulsed with 0.1 μCi of ^3 H-thymidine for an additional 24 hours. The cells were then harvested using a Brandel cell harvester (model M-12) and collected on Whatman glass microfilters. The radioactivity associated with the filters was quantified in a liquid scintillation counter, and the amount of ^3 H-thymidine incorporated into tumor cells treated with the phosphonate compound was calculated as a percentage of the amount of ^3 H-thymidine incorporated into untreated tumor cells.
It has been discovered that a phosphonate compound of the following structure: [drawing 21] inhibits thymidine incorporation into DNA of a human cervical carcinoma (C-41 ) cell line. This effect is indicative of the anti-cancer activity of the above compound.

WEHI-3B tumor cells = assay: 3H-thymidine incorporation assay; format: cell-based; settings: Mus musculus, WEHI3B, read-out: Thymidine uptake (% of control)
Description: as §1, §2
as §3, with “After incubation for 24, 48 or 72 hours at 37° C. in a humidified atmosphere containing 5% CO2, the wells were pulsed with 0.1 μCi of ^3 H-thymidine for an additional 24 hours.” left out
The biological activities of 4-hexadecylthio-3(S ) -3-methoxybutane-l-phosponocholine and its enantiomer 4-hexadecylthio-3(R)-3-methoxybutane-1-phosphonocholine were studied on several cancer cell lines. […] The cell viability, was determined as percent[^3 H]thymidine uptake into the cell DNA. The following results are mean of five samples ± S.D.

WEHI-3B cells = assay: WEHI-3B tumor growth under the skin in mice (S-thioalkylphosphonate); format: in vivo
Description: We also provide data on the activity of S-thioalkylphosphonate to delay growth of tumor in the mice. WEHI-3B cells were grown in mice under the skin. Three days after the injection of cancer cells the mice received daily 10 mg/kg thialkylphosphonate for 21 days. The control mice received the saline alone instead of the drug. After 21 days, the tumor volume was measured. […] The tumor volume was measured in CM^3.

[2] = system: human colon carcinoma (HT29); assay: effect of S-thioalkylphosphonate on tumor cell line (% of control); format: cell-based; settings: read-out: HT29 cells (% of control)
P388 tumor cells = assay: colonogenic cell survival assay; format: cell-based; settings: Mus musculus, 120 h, P388, soft agar, 5 days, read-out: Number of colonies Formed (% of Control)
Description: (§4) Inhibition of colony formation in soft agar medium (colonogenic cell survival assay) is a more rigorous and direct measurement of cell kill or growth inhibition, and reflects the anti-cancer activity of the test compound. Briefly, tumor cells were cultured in petri dishes in methylcellulose, with or without a phosphonate test compound, and the number of colonies formed during a 5-day incubation period were counted.
The efficacy of 4-hexadecylthio-3-methoxybutane phosphonocholine on the growth of a mouse […] tumor was evaluated. The P388 cell line was cultured in a soft agar in the presence and absence of various concentrations of thioalkylphosphonate for 5 days, the number of tumor colonies formed during this period of time was registered.

L1210 tumor cells = assay: colonogenic cell survival assay; format: cell-based; settings: Mus musculus, 120 h, L1210, soft agar, read-out: Number of Colonies Formed (% of Control)
Description: as §4
The effectiveness of S-thioalkylphosphonate on the growth of a lymphoma cell line was also investigated. L1210 is a mouse B-Cell tumor (lymphoma), was tested in soft agar for susceptibility to the cytotoxic action of thioalkylphosphonate.

[3] = system: RPMI7915 cells (human melanoma); assay: effect of S-thioalkylphosphonate on tumor cell line (% of control); format: cell-based

For `CCCCCCCCCCCCCCCCCCOCC(CCP(=O)([O-])OCC[N+](C)(C)C)OC` (centres unmarked) [compound VI], the “Tumor volume (mm^3)” value ([1]; day 0 after tumor injection) was 0 mm^3, the “Tumor volume (mm^3)” value ([1]; day 7 after tumor injection) was 0 mm^3 and the “Tumor volume (mm^3)” value ([1]; day 10 after tumor injection) was 0 mm^3. For the same compound, the “Tumor volume (mm^3)” value ([1]; day 17 after tumor injection) was 100 mm^3, the “Tumor volume (mm^3)” value ([1]; day 18 after tumor injection) was 175 mm^3 and the “Tumor volume (mm^3)” value ([1]; day 20 after tumor injection) was 252 mm^3. For the same compound, the “Tumor volume (mm^3)” value ([1]; day 22 after tumor injection) was 500 mm^3, the “retardation of tumor growth” value ([1]; versus untreated animals, 50 mg/day orally once a day) was “approximately 6 days” and the activity at 2.5 µM (C-41 tumor cells; C4-1, 2.5 μM) was 88%. It also gave an activity at 5 µM (C-41 tumor cells; C4-1, 5 μM) of 63%, an activity at 10 µM (C-41 tumor cells; C4-1, 10 μM) of 42% and an activity at 20 µM (C-41 tumor cells; C4-1, 20 μM) of 41%. It also gave an activity at 40 µM (C-41 tumor cells; C4-1, 40 μM) of 16%, an activity at 1.25 µM (WEHI-3B tumor cells; 24 h, Day 1) of 95% and an activity at 2.5 µM (WEHI-3B tumor cells; 24 h, Day 1) of 72%. The activity at 5 µM (WEHI-3B tumor cells; 24 h, Day 1) was 34%, the activity at 10 µM (WEHI-3B tumor cells; 24 h, Day 1) was 18% and the activity at 20 µM (WEHI-3B tumor cells; 24 h, Day 1) was 8%. The activity at 40 µM (WEHI-3B tumor cells; 24 h, Day 1) was 3%, the activity at 1.25 µM (WEHI-3B tumor cells; 48 h, Day 2) was 84% and the activity at 2.5 µM (WEHI-3B tumor cells; 48 h, Day 2) was 67%. For the same compound, the activity at 5 µM (WEHI-3B tumor cells; 48 h, Day 2) was 22%, the activity at 10 µM (WEHI-3B tumor cells; 48 h, Day 2) was 13% and the activity at 20 µM (WEHI-3B tumor cells; 48 h, Day 2) was 2%. For the same compound, the activity at 40 µM (WEHI-3B tumor cells; 48 h, Day 2) was 2%, the activity at 1.25 µM (WEHI-3B tumor cells; 72 h, Day 3) was 77% and the activity at 2.5 µM (WEHI-3B tumor cells; 72 h, Day 3) was 54%. The activity at 5 µM (WEHI-3B tumor cells; 72 h, Day 3) was 12%, the activity at 10 µM (WEHI-3B tumor cells; 72 h, Day 3) was 10% and the activity at 20 µM (WEHI-3B tumor cells; 72 h, Day 3) was 1%. For the same compound, the activity at 40 µM (WEHI-3B tumor cells; 72 h, Day 3) was 2%.

For `CCCCCCCCCCCCCCCCSCC(CCP(=O)([O-])OCC[N+](C)(C)C)OC` (centres unmarked) [S-Thioalkylphosphonocholine, 4-hexadecylthio-3-methoxybutane phosphonocholine], the “reduction of tumor size” value (WEHI-3B cells; after 21 days, daily 10 mg/kg) was “about 50%”, the “Tumor Volume at Day 21” value (WEHI-3B cells; daily 10 mg/kg for 21 days, from three days after injection of cancer cells) was “.0359 ± 0.128 cm^3” and the activity at 0.6 µM ([2]; HT-29, 0.6 μM) was 99%. It also gave an activity at 1.25 µM ([2]; HT-29, 1.25 μM) of 83%, an activity at 2.5 µM ([2]; HT-29, 2.5 μM) of 71% and an activity at 5 µM ([2]; HT-29, 5 μM) of 54%. The activity at 10 µM ([2]; HT-29, 10 μM) was 45%, the activity at 20 µM ([2]; HT-29, 20 μM) was 18% and the activity at 40 µM ([2]; HT-29, 40 μM) was 1%. The activity at 0.62 µM (P388 tumor cells; 0.62 μM) was 55%, the activity at 1.25 µM (P388 tumor cells; 1.25 μM) was 43.7% and the activity at 2.5 µM (P388 tumor cells; 2.5 μM) was 41%. For the same compound, the activity at 5 µM (P388 tumor cells; 5 μM) was 29%, the activity at 10 µM (P388 tumor cells; 10 μM) was 3% and the activity at 20 µM (P388 tumor cells; 20 μM) was 1%. For the same compound, the activity at 0.65 µM (L1210 tumor cells; 0.65 μM) was 65%, the activity at 1.25 µM (L1210 tumor cells; 1.25 μM) was 47% and the activity at 2.5 µM (L1210 tumor cells; 2.5 μM) was 30.5%. It also gave an activity at 5 µM (L1210 tumor cells; 5 μM) of 30%, an activity at 10 µM (L1210 tumor cells; 10 μM) of 20.5% and an activity at 20 µM (L1210 tumor cells; 20 μM) of 14%. For the same compound, the activity at 0.6 µM ([3]; RPMI-7951, 0.6 μM) was 98%, the activity at 1.25 µM ([3]; RPMI-7951, 1.25 μM) was 80% and the activity at 2.5 µM ([3]; RPMI-7951, 2.5 μM) was 78%. For the same compound, the activity at 5 µM ([3]; RPMI-7951, 5 μM) was 63%, the activity at 10 µM ([3]; RPMI-7951, 10 μM) was 40% and the activity at 20 µM ([3]; RPMI-7951, 20 μM) was 29%. For the same compound, the activity at 40 µM ([3]; RPMI-7951, 40 μM) was 0%.
